Series [1] addresses BACE-1 (Homo sapiens (Human), UniProt P56817). Put plainly: BACE-1 Cellular Assay (Aβ in HEK293-APPswe/lon cells). Conditions: 4 hours. The class given is cell-based. An outline of the steps: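 HEK293 cells stably expressing human APP with Swedish and London FAD mutations, cultured at 37° C., 5% CO2. Aβ40 or Aβ42 in conditioned media measured by electrochemiluminescent ELISA (WO2 capture; G2-10 or G2-11 detection). IC50 from variable-slope sigmoidal fit of signal versus compound concentration.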

For series [2], the system named is CSF Aβ40. In words: Aβ Reduction In Vivo (rat CSF Aβ40). As to conditions: male CD IGS rats, 10 mg/kg oral gavage, CSF at 3 hours, change vs vehicle. The procedure:
Assay 5: Aβ Reduction In Vivo
The in vivo efficacy and/or potency of BACE inhibitors (test compounds) can be evaluated using a variety of animal models, including mouse, rat, dog, and monkey, and these animals can be wild type, transgenic, or gene knockout animals.
Generally, animals are administered (by oral gavage, intravenous injection, or by other suitable route) a test compound in doses ranging from, for example, 0.1 mg/kg (mg of compound per kg of animal body weight) to 100 mg/kg formulated in vehicles, such as cyclodextrin, phosphate buffer, hydroxypropyl methylcellulose or other suitable vehicles. One to twenty-four hours following the administration of compound, animals are sacrificed, and tissues (for example, brain, cerebrospinal fluid (CSF), and/or plasma) are collected for analysis of Aβ levels and/or test compound concentrations (Dovey et al., 2001, Journal of Neurochemistry, 76, 173-181). Tissue samples are processed appropriately and then analyzed for the presence of Aβ by specific sandwich ELISA assays based on electrochemiluminescence (ECL) technology.
For example, in the following assay for which data are reported below, male CD IGS rats (body weight approximately 120 g, Charles River Laboratories, Kingston, N.Y.) were used to assess lowering of CSF levels of Aβ1-40 (Aβ40) in the presence of compounds of the invention. At time 0, animals were administered by oral gavage a test compound at a dose of 10 mg/kg in 20% hydroxypropyl-β-cyclodextrin (dosing volume 5 mL/kg). A separate group of animals received 20% hydroxypropyl-β-cyclodextrin alone to serve as the vehicle control group. Three hours after administration, the rats were euthanized with excess CO2. Immediately following euthanasia, CSF was collected from the cisterna magna and quickly frozen on dry ice. Samples were stored at −80° C. until quantification of Aβ40 levels.
The measurement of endogenous rat Aβ40 in CSF relied on the 585 antibody (Ab585, BioSource, NONO585), which specifically recognizes the N-terminal sequence of rodent Aβ40, and on the monoclonal antibody, G2-10, which specifically recognizes the free C-terminus of Aβ40. Ab585 was labeled with biotin (b-Ab585) by first dialyzing the antibody sample extensively versus PBS (pH 7.8) to remove impurities, followed by dilution to between 1 and 2 mg/mL protein concentration. EZ-Link Sulfo-NHS-LC-Biotin (Pierce) was dissolved in PBS (pH 7.8) at a concentration of 1 mg/mL immediately prior to use. Ab585 was labeled with EZ-Link Sulfo-NHS-LC-biotin using a 10:1 biotin:antibody ratio by incubation at room temperature for 1 hour. The labeling reaction was quenched by addition of 1.0 M glycine to a final concentration of 0.1 M followed by 10 minute incubation at room temperature. Glycine was removed by extensive dialysis versus PBS.
For rat CSF Aβ40 determinations, a calibration curve of various concentrations of synthetic rodent Aβ40 was assayed in parallel with rat CSF samples in duplicate using an avidin-coated 96-well MSD plate (Mesoscale Diagnostics). Either 50 μL of rodent Aβ40 standards diluted in PBS (pH 7.4) supplemented with 1% BSA and 1% Tween-20 (standard diluent buffer) or 40 μL of standard diluent buffer plus 10 μL rat CSF were added to each 96 well avidin-coated plate. To each well was added 50 μL of 0.1 M HEPES (pH 7.5), 2% BSA, 2% Tween-20, 0.3 M NaCl (2×Aβ40 buffer) supplemented with the b-Ab585 capture and ruthenylated-G2-10 detection antibodies diluted to 1 μg/mL and 0.5 μg/mL, respectively. Plates were shaken for 1 min on a microplate shaker, covered to protect from light and incubated overnight (˜16 h) at 4° C. For detection, plates were first washed twice with 100 μL of 1×CSF Aβ40 buffer followed by addition of 160 μL of 1×MSD read buffer-T (Mesoscale Diagnostics) diluted in 1×CSF Aβ40 buffer. Plates were read on a MSD Sector Imager 2400 model (Mesoscale Diagnosotics). […]

Series [3] concerns the target rat Mdr1a (P-gp) (Rattus norvegicus, UniProt Q6PSM0). In words: P-Glycoprotein (P-gp) Efflux Susceptibility Assay. The class given is in vitro ADME. Conditions: LLC-PK1, pH 7.4; rat LLC-Mdr1a cells, B-A/A-B Papp ratio at 3 h; method 0.1 μM; read-out: P-gp efflux assay (rMDR1a BAAB). The procedure: Assay 6: P-Glycoprotein (P-Gp) Efflux Susceptibility Assay
As P-gp is expressed at the blood-brain-barrier, among other tissues, lower P-gp efflux ratio values are associated with a better ability to cross the blood-brain-barrier to reach the site of BACE-1 expression in the central nervous system. P-gp efflux ratios are measured in cellular assays using cell lines that express P-gp from a number of species including rat, monkey, and human. The following assay was used to measure the rat P-gp efflux ratios, which are believed to be the most sensitive measure of P-gp susceptibility, for the compounds of the invention (test compounds) reported in the tables below.
The bidirectional transport of test compounds was conducted across pig kidney epithelial (LLC-PK1) cell monolayers. Native LLC-PK1 cells were obtained from The Netherlands Cancer Institute (Amsterdam, The Netherlands), and used under a license agreement. LLC-PK1 cells expressing a cDNA encoding rat Mdr1a (rat LLC-Mdr1a) were made in-house by stable transfection of LLC-PK1 cells with a rat MDR1 cDNA. LLC-PK1 and rat LLC-Mdr1a cell lines were cultured in 96-well transwell culture plates. […] Substrate solution (150 μL) was added to either the apical (A) or the basolateral (B) compartment of the culture plate, and buffer (150 μL; HBSS, 10 mM HEPES, pH 7.4) was added to the compartment opposite to that containing the compound. At t=3 h, 50 μL samples were removed from both sides of monolayers dosed with test compound and placed in 96 well plates, internal standard (50 μL 1 μM labetolol) was added to the samples. Samples were analyzed by LC/MS/MS using an Applied Biosystems SCIEX API 5000 triple quadruple mass spectrometry (Concord, ON, Canada) with a TurbolonSpray ion source in the positive ion mode. A Thermo Scientific Transcend LX-2 system (Franklin, Mass.) was coupled to the API 5000 with a flow rate of 800 μL/min to direct sample into the mass spectrometer. A Waters ACQUITY UPLC T3 (2×30 mm, 1.7 μm; Milford, Mass.) column was used for sample analysis. Mobile phase A consisted of 0.1% formic acid in water. Mobile phase B was acetonitrile with 0.1% formic acid. A gradient elution program was utilized where the solvent composition was held at 5% B for 0.25 min, changed from 5% B to 95% B at 0.25 min, and followed by holding at 95% B for 0.5 min, then, went back to 5% B at 0.75 min. The column was then re-equilibrated at the original solvent composition for 0.5 min. Mass spectrometric detection was accomplished by multiple reaction monitoring (MRM) of transitions unique to each compound. Sample concentration was obtained by extrapolation from the standard curve. Verapamil (1 μM) was used as the positive control to assess the functional activity of Pgp. The experiment was performed in triplicate.
The Papp was calculated by the following formula for samples taken at t=3 h:
[formula] where “Volume of Receptor Chamber” is 0.15 mL, “Area of membrane” is 0.11 cm^2, the “Initial Concentration” is the sum of the concentration measured in the donor compartment plus the concentration measured in the receiver compartment at t=3 h, “Δ in Concentration” is the concentration in the receiver compartment at 3 h, and “Δ in Time” is the incubation time (3×60×60=10800 s). Papp was expressed as 10^−6 cm/s.
The Papp reported in the table below is the average of the Papp for transport from A to B and Papp for transport from B to A at t=3 hr.
The B-A/A-B ratio (BAAB) was calculated by dividing the Papp from B to A by the Papp from A to B at t=3 h: […]

Series [4] concerns the target soluble human BACE-1 catalytic domain (Homo sapiens (Human), UniProt P56817). In words: BACE-1 Ki Assay (BACE-1 HTRF FRET Assay). In kind it is biochemical. Conditions: Assay 1; Ki calculated from IC50 by Cheng-Prusoff. An outline of the steps:
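Recombinant human BACE-1 catalytic domain (3 nM in 10 μl) preincubated with inhibitor 30 min at 30° C, pH 5.0 acetate buffer with 7.5% DMSO, then 200 nM final QSY7-APPswe-Eu substrate for 1.5 h; 620 nm time-resolved fluorescence read. IC50 from nonlinear regression converted to Ki by Cheng-Prusoff using Km 8 μM.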

Series [5] has as its target purified human autoBACE-2 (Homo sapiens (Human), UniProt Q9Y5Z0). In words: BACE-2 Assay (BACE-HTRF assay). The class given is biochemical. Conditions: Assay 2; Ki calculated from IC50 by Cheng-Prusoff; read-out: BACE2 Ki. An outline of the steps: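 Purified human autoBACE-2 (1 nM final) pre-incubated 30 min at 30° C with compounds in 20 mM sodium acetate pH 5.0, 10% glycerol, 0.1% Brij-35, 5% DMSO final; endpoint HTRF cleavage of QSY7/Eu FRET peptide, read at 620 nm (320 nm excitation). IC50 by sigmoidal regression of normalized data; Ki by Cheng-Prusoff.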

Series [6] deals with purified human Cathepsin-D (Homo sapiens (Human), UniProt P07339). In words: Cathepsin-D Assay (time-resolved FRET).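 Note: Europium-labelled peptide substrate with QSY7 quencher, cleavage read as 620 nm fluorescence after 30 min preincubation then 30 min reaction at 30 °C, pH 5.0, inhibition lowers signal.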 The class given is biochemical. As to conditions: Assay 4; Ki calculated from IC50 by Cheng-Prusoff.
Sequence of purified human Cathepsin-D (P07339 65-412): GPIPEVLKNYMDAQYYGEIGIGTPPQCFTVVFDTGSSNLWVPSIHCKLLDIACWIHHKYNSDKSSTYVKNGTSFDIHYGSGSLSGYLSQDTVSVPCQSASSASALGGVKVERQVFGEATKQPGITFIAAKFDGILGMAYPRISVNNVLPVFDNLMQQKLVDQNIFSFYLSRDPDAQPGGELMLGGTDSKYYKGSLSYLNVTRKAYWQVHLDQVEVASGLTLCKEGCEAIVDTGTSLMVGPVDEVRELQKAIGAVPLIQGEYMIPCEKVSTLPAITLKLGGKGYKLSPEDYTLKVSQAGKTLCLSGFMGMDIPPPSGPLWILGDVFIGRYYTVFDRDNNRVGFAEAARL
The subject of series [7] is HepG2 cells. Put plainly: In Vitro Phospholipidosis Assay. In kind it is cell-based. Conditions: 20 μM, 24 hours, normalized to DMSO. An excerpt: [formula] Assay 7: In Vitro Phospholipidosis Assay
Drug-induced phospholipidosis (PL) is characterized by intracellular accumulation of phospholipids with lamellular bodies, and may result from impaired phospholipid metabolism in the lysosome (Anderson et al., 2006, FEBS Letter, 580, 5533-5540), and many compounds known to cause drug-induced PL are also associated with adverse drug reactions. Using a method described in the literature (Bhandari et al., 2008, Assay and Drug Dev. Tech., 6(3), 407-419), an in vitro cellular assay can provide data that can determine the PL potential of test compounds. In this assay, compounds that lower values for mean inclusion count of a fluorescent phospholipid (described below) versus control are associated with reduced potential for PL.
HepG2 cells were dispensed into 96-well collagen I coated plates at an initial density of 2.0×10^5 cells in 200 μL complete culturing medium (MEM Media w/Earle's Balanced Salt Solution supplemented with 10 IU penicillin, 10 μg/mL streptomycin, and 10% heat inactivated fetal bovine serum). Cells were incubated overnight at 37° C. with 5% CO2, 89% humidity prior to treatment.
A solution of fluorescently labeled phospholipid N-(7-nitrobenz-2-oxa-1,3-diazol-4-yl)-1,2-dihexadecanoyl-sn-glycero-3-phosphoethanolamine (NBD-PE) was prepared at a concentration of 10 mM in absolute ethanol. Dissolution of the NBD-PE was facilitated by sonication in a room temperature water bath for 30 minutes. NBD-PE medium was prepared by diluting NBD-PE stock to a final concentration of 50 μM in complete culturing medium, filtering (pore size, 0.22 μm) prior to use.
Compound treatment stocks were prepared in dimethyl sulfoxide at 500× final concentrations. Working treatment solutions were prepared by diluting compound stocks into NBD-PE medium with DMSO serving as the vehicle control. Treatment concentration was 20 μM. Amiodarone ((2-{4-[(2-butyl-1-benzofuran-3-yl)carbonyl]-2,6-diiodophenoxy}ethyl)diethylamine) served as the assay positive control at the same concentration. All treatments were tested in triplicate for 24 hours.
Following treatment, cultures were rinsed once with Hank's Balanced Salt Solution (HBSS) containing no phenol red. Cultures were then incubated for 30 minutes at 37° C. with […] Hoechst 33342 nuclear stain and […] cell tracker orange cytoplasm stain. After incubation, cells were rinsed once with HBSS and then fixed in 2% formalin solution.
Cultures were imaged using the IN Cell Analyzer 2000 imaging system. One set of images were acquired with the 4× objective using the appropriate Hoechst filter settings to acquire a full-well cell count. Another set of images were acquired to evaluate treatment-related phospholipidosis with the 20× objective.
Images were analyzed using custom algorithms created in the IN Cell Workstation software using NBD-PE inclusion count in the cell cytoplasm as and endpoint associated with phospholipidosis. Data were expressed as fold over control, normalized to the DMSO vehicle control response.

Sequence of BACE-1 (P56817 46-501): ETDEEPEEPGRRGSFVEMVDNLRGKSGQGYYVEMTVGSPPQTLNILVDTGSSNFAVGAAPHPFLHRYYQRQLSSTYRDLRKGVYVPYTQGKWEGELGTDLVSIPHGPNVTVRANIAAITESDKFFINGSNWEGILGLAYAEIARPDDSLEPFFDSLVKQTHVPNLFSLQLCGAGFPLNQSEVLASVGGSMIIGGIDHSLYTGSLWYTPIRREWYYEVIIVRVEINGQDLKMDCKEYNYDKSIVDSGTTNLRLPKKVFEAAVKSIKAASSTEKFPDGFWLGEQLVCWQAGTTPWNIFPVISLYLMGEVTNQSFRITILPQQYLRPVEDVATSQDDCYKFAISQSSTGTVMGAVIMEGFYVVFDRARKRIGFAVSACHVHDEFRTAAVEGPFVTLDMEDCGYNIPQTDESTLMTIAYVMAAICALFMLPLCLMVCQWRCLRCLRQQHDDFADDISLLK
Sequence of rat Mdr1a (P-gp) (Q6PSM0 1-1272): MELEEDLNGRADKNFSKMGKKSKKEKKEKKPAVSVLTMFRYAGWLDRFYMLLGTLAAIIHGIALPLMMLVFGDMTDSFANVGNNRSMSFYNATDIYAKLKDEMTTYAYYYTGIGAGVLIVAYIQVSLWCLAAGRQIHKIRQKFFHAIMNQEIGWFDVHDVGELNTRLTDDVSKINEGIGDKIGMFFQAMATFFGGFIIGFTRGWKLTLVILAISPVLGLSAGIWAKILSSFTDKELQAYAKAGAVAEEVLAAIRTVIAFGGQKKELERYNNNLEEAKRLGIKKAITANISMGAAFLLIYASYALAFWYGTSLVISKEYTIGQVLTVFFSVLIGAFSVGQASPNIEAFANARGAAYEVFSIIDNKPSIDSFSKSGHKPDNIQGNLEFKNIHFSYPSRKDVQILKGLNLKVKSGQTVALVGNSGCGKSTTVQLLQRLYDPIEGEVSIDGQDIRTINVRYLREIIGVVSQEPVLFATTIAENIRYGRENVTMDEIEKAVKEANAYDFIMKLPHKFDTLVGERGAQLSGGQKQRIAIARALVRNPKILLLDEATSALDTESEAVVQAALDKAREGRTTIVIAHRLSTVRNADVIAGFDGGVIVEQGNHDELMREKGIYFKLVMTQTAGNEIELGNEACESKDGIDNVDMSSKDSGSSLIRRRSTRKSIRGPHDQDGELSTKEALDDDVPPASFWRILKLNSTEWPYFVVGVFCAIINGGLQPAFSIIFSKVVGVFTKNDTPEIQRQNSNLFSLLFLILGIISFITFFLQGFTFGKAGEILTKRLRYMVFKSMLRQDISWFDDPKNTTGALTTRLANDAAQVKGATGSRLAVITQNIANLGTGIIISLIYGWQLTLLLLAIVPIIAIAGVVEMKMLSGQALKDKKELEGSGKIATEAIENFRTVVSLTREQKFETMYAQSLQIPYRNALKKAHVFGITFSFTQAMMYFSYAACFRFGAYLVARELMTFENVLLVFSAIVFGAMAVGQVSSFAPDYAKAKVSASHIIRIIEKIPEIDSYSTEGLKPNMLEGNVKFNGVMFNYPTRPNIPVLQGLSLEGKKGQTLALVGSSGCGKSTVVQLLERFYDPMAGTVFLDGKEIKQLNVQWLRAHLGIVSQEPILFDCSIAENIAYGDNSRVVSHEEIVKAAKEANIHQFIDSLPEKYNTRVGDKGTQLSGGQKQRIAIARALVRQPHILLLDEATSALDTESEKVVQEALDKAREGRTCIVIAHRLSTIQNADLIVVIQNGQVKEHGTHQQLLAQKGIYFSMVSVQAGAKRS
Sequence of soluble human BACE-1 catalytic domain (P56817 75-416): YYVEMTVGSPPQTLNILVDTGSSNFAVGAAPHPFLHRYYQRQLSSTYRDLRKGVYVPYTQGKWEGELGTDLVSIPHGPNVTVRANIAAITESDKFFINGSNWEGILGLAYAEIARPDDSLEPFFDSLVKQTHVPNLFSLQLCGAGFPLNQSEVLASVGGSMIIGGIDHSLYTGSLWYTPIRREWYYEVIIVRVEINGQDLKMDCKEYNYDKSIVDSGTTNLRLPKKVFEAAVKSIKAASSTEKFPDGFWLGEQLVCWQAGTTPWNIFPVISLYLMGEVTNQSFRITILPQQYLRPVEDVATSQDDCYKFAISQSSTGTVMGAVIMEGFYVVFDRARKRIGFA
Sequence of purified human autoBACE-2 (Q9Y5Z0 63-466): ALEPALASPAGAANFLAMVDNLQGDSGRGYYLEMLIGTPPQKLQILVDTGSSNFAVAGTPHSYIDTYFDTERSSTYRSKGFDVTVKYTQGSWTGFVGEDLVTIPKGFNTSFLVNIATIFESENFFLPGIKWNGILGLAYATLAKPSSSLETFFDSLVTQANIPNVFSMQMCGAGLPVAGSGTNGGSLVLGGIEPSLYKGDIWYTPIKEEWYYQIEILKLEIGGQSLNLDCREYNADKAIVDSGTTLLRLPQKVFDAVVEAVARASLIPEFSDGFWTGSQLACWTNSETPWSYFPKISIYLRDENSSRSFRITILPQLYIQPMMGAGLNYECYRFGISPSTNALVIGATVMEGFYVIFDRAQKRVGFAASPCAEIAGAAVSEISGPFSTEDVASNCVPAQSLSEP

As for `C[C@@]1(c2cc(Nc3nccc4cc(C#N)cnc34)ccc2F)CS(=O)(=O)[C@@](CF)(C2CC2)C(N)=N1` [Example 1, 8-({3-[(3R,6S)-6-cyclopropyl-6-(fluoromethyl)-5-imino-3-methyl-1,1-dioxidothiomorpholin-3-yl]-4-fluorophenyl}amino)-1,7-naphthyridine-carbonitrile], in series [1], half-maximal inhibition (IC50) required 24 nM. For the same compound, the “Aβ reduction in vivo in rat (Δ% CSF Aβ40 @ 10 mpk)” value in series [2] was −58%. Further, the efflux ratio at 3 h in series [3] is 6.1.
With `COc1cnc2c(Nc3ccc(F)c([C@]4(C)CS(=O)(=O)[C@@](CF)(C5CC5)C(N)=N4)c3)nccc2c1` [Example 7, N-{3-[(3R,6S)-6-cyclopropyl-6-(fluoromethyl)-5-imino-3-methyl-1,1-dioxidothiomorpholin-3-yl]-4-fluorophenyl}-3-methoxy-1,7-naphthyridin-8 amine], the Ki (in general, a dissociation constant, usually derived from enzyme kinetics or from competition with a known ligand) in series [4] was 7.1 nM; in series [5] it was 3.6 nM; in series [6], 1120 nM. Besides, the half-inhibitory concentration (IC50) (commonly the concentration at which inhibition is half-maximal) in series [1] turned out to be 132 nM. Also, in series [7], the “In Vitro Phospholipidosis Assay: Mean NBD-PE Inclusion Count (Fold over control)” value was 1.9 Fold over control.

The record behind these values is US9732088B2, “C2-carbocyclic iminothiazine dioxides as BACE inhibitors, compositions, and their use” (Merck Sharp & Dohme Corp., priority 2014, dated 2017).
